pEC50: −log10 of the molar value.
Columns and labels:
Assay type in all cases: cell-based
3R Shaker K channel [1] = target: T1, 3R Shaker K channel (Drosophila melanogaster, UniProt P08510, DEL6-46/M356R/A359R); assay: two-electrode voltage clamp in Xenopus oocytes, G(V) shift at […]
T1 construct: gene Sh

Shaker K channel (WT) [2] = target: T2, Shaker K channel (WT) (Drosophila melanogaster, UniProt P08510, DEL6-46); assay: as above
T2 construct: gene Sh

3R Shaker K channel [3] = target: T3, 3R Shaker K channel (Drosophila melanogaster, UniProt P08510, A359R/DEL6-46/M356R); assay: two-electrode voltage clamp in Xenopus oocytes, G(V) shift
T3 construct: gene Sh
T3 sequence (P08510 with tags, fused parts or gaps DEL6-46/M356R/A359R): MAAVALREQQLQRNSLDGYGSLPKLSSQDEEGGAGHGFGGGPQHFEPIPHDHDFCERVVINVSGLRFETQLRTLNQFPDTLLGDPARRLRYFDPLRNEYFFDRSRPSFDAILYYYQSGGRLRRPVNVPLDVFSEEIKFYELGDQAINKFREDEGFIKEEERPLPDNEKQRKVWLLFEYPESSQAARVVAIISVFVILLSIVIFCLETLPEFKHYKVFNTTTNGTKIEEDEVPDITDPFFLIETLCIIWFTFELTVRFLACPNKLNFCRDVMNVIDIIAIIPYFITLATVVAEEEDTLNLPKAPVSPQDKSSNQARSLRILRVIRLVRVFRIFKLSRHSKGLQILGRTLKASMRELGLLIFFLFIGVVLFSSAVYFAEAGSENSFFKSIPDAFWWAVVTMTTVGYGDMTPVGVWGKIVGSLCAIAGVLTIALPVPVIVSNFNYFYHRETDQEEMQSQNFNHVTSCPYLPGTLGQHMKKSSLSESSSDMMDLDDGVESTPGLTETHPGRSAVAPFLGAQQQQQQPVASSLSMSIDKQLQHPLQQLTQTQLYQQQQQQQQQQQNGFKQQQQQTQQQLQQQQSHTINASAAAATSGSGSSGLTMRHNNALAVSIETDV

3R Shaker K channel [4] = target: T3, 3R Shaker K channel; assay: two-electrode voltage clamp in Xenopus oocytes, G(V) shift; also patch clamp in CHO-K1 cells
Shaker K channel (WT) [5] = target: T2, Shaker K channel (WT); assay: two-electrode voltage clamp in Xenopus oocytes, G(V) shift and pH dependence at […]

T2 sequence (P08510 with tags, fused parts or gaps DEL6-46): as the sequence (P08510 with tags, fused parts or gaps DEL6-46/M356R/A359R) above, with R315M, R318A counted along it
T1 sequence (P08510 with tags, fused parts or gaps DEL6-46/M356R/A359R): as the sequence (P08510 with tags, fused parts or gaps DEL6-46/M356R/A359R) above

C=C[C@@]1(C)CC[C@H]2C(=CC[C@@H]3[C@]2(C)CCC[C@@]3(C)C(=O)O)C1 [compound 2, isopimaric acid]
two-electrode voltage clamp in Xenopus oocytes, G(V) shift at 100 μM (3R Shaker K channel [1]): −15.9 ± 1.8 mV

CC(C)C1=CC2=CC[C@@H]3[C@](C)(CCC[C@@]3(C)C(=O)O)[C@H]2CC1 [compound 3, abietic acid]
two-electrode voltage clamp in Xenopus oocytes, G(V) shift at 100 μM (3R Shaker K channel [1]): −11.2 ± 2 mV

CC(C)c1ccc2c(c1)CC[C@H]1[C@](C)(C(=O)O)CCC[C@]21C [compound 4, dehydroabietic acid]
two-electrode voltage clamp in Xenopus oocytes, G(V) shift at 100 μM (Shaker K channel (WT) [2]): −2.3 mV | pEC50 (3R Shaker K channel [3]): 4.05

C=CCON=C1C[C@H]2[C@](C)(C(=O)O)CCC[C@]2(C)c2ccc(C(C)C)cc21 [compound 19, Compound 19]
two-electrode voltage clamp in Xenopus oocytes, G(V) shift at 100 μM (3R Shaker K channel [1]): −17.8 ± 1.9 mV

CON=C1C[C@H]2[C@](C)(C(=O)O)CCC[C@]2(C)c2cc(Br)c(C(C)C)cc21 [compound 33, Compound 33]
pEC50 (3R Shaker K channel [4]): 4.43 | two-electrode voltage clamp in Xenopus oocytes, G(V) shift and pH dependence at (Shaker K channel (WT) [5]): For all three compounds, the induced shifts are smaller on Shaker WT compared to Shaker 3R K channels

C[C@@]1(C(=O)O)CCC[C@]2(C)c3cc(Cl)c(Cl)c(Cl)c3CC[C@@H]12 [compound 77, Compound 77]
two-electrode voltage clamp in Xenopus oocytes, G(V) shift at 100 μM (Shaker K channel (WT) [2]): −21.2 mV | pEC50 (3R Shaker K channel [4]): 4.43

— PMC4547393, “Resin-acid derivatives as potent electrostatic openers of voltage-gated K channels and suppressors of neuronal excitability” (Scientific Reports, 2015)
